Each compound was assayed against Endothelial lipase (EL) (Homo sapiens (Human), UniProt Q9Y5X9) (assay: Endothelial lipase (EL) enzymatic assay with fluorescent substrate A10070 in DMPG vesicles).
Assay type: biochemical
Method: Endothelial lipase (EL) and hepatic lipase (HL) activities were measured using a fluorescent substrate, A10070, (Invitrogen, CA) doped into an artificial vesicle containing DMPG (Avanti Polar Lipids) as the excipient. Vesicles were prepared by combining 571 μL of 29 mM DMPG in a 1:1 mixture of MeOH and CHCl3 with 2000 μL of 1 mM A10070 in a 1:1 mixture of MeOH and CHCl3. The mixture was dried under nitrogen in multiple vials then resuspended in 20 mL total volume of 50 mM HEPES pH 8.0 buffer containing 50 mM NaCl and 0.2 mM EDTA. The sample was allowed to sit at room temperature for 15 min and then was sonicated 3×4 mins on ice with a Branson Sonicator using duty cycle 1. This preparation provides vesicles with a mole fraction of 0.11 for the FRET substrate.
The enzymatic assay was measured using 384-well white Optiplates. Each well contained 20 μL of assay buffer (50 mM HEPES pH 8.0, 50 mM NaCl and 1 mM CaCl2) and 0.25 μL of a DMSO solution containing a compound of interest. EL or HL (10 μL) was added and allowed to incubate with the compound for 30 min at 37° C. The source of EL was conditioned media obtained from HT-1080 cells that were transformed using RAGE technology (Athersys) to overexpress endogenous EL, and HL was partially purified from conditioned media obtained from COS cells overexpressing HL. The reaction was started by the addition of 10 μL of a 1:10 dilution of vesicles. The final total reaction volume was […]. The reaction rates were measured on a Gemini plate reader with an excitation wavelength of 490 nm and an emission wavelength of 530 nm. Readings were taken over a period of 60 minutes, and the slope between 300 and 900 secs of the readout was used to calculate the rate of the reaction.

Chain of Endothelial lipase (EL) (Q9Y5X9 21-500): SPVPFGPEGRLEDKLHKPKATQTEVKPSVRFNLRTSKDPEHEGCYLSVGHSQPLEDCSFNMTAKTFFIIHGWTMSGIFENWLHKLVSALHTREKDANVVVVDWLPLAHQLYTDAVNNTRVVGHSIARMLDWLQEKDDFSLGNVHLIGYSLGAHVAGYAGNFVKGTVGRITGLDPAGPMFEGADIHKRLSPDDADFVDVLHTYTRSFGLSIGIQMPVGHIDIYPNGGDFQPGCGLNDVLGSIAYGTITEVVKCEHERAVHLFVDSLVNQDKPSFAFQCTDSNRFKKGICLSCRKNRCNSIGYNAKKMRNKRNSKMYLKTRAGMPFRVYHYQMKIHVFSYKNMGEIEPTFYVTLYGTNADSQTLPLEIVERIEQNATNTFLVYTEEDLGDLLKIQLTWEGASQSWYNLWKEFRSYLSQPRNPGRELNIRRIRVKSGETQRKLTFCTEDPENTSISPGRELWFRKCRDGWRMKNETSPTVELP

IC50	Structure (SMILES)
17 nM	COc1nccc(-c2cc3nc(C(C(=O)NCC(=O)NC4CC4)S(C)(=O)=O)sc3cc2F)c1F (centres unmarked) [Example 368, N-[(cyclopropyl-carbamoyl)methyl]-2-[6-fluoro-5-(3-fluoro-2-methoxypyridin-4-yl)-1,3-benzothiazol-2-yl]-2-methanesulfonyl-acetamide]
20 nM	CS(=O)(=O)C(C(=O)NCC(=O)NC1CC1)c1nc2ccc(-c3ccc(C(=O)NCC(F)(F)F)cc3)cc2s1 (centres unmarked) [Example 103, 4-[2-({[(cyclopropyl-carbamoyl)methyl]carbamoyl} (methanesulfonyl)methyl)-1,3-benzothiazol-6-yl]-N-(2,2,2-trifluoroethyl) benzamide]
14 nM	O=C(CNC(=O)C(c1nc2ccc(-c3ccc(F)nc3)cc2s1)S(=O)(=O)c1ccccc1)NC1CC1 (centres unmarked) [Example 434, 2-(benzenesulfonyl)-N-[(cyclopropyl-carbamoyl)methyl]-2-[6-(6-fluoropyridin-3-yl)-1,3-benzothiazol-2-yl] acetamide]
9 nM	O=C(CNC(=O)C(c1nc2ccc(-c3ccc4c(c3)CNC4=O)cc2s1)S(=O)(=O)c1ccc(F)cc1)NC1CC1 (centres unmarked) [Example 447, N-[(cyclopropyl-carbamoyl)methyl]-2-(4-fluorobenzene-sulfonyl)-2-[6-(1-oxo-2,3-dihydro-1H-isoindol-5-yl)-1,3-benzothiazol-2-yl}acetamide]
4 nM	COCCS(=O)(=O)C(C(=O)NCC(=O)NC1CC1)c1nc2cc(C)c(-c3ccc(F)nc3)cc2s1 (centres unmarked) [Example 185, N-[(cyclopropyl-carbamoyl)methyl]-2-[6-(6-fluoropyridin-3-yl)-5-methyl-1,3-benzothiazol-2-yl]-2-(2-methoxyethane-sulfonyl) acetamide]
24 nM	COCCS(=O)(=O)C(C(=O)NCC(=O)NC1CC1)c1nc2ccc(-c3ccc(C(=O)N4CC[C@@H](OC)C4)cc3)cc2s1 (stereo partly drawn) [Example 407, N-[(cyclopropyl-carbamoyl)methyl]-2-(2-methoxyethane-sulfonyl)-2-(6-{4-[(3R)-3-methoxy-pyrrolidine-1-carbonyl]phenyl}-1,3-benzothiazol-2-yl)acetamide]
99 nM	O=C(CNC(=O)C(c1nc2ccc(-c3cncnc3)cc2s1)S(=O)(=O)N1CCOCC1)NC1CC1 (centres unmarked) [Example 481, N-[(cyclopropyl-carbamoyl)methyl]-2-(morpholine-4-sulfonyl)-2-[6-(pyrimidin-5-yl)-1,3-benzothiazol-2-yl]acetamide]
1 nM	COCCS(=O)(=O)C(C(=O)NCC(=O)NC1CC1)c1nc2cc(F)c(-c3ccc(-n4ncc(C(N)=O)c4N)cc3)cc2s1 (centres unmarked) [Example 586, 5-amino-1-{4-[2-({[(cyclopropyl-carbamoyl)methyl]carbamoyl}(2-methoxyethane-sulfonyl)methyl)-5-fluoro-1,3-benzothiazol-6-yl]phenyl}-1H-pyrazole-4-carboxamide]
5 nM	COCCS(=O)(=O)C(C(=O)NCC(=O)NC1CC1)c1nc2cc(-c3ccnc(C(F)(F)F)c3)ccc2s1 (centres unmarked) [Example 63, N-[(cyclopropyl-carbamoyl)methyl]-2-(2-methoxyethane-sulfonyl)-2-{5-[2-(trifluoromethyl)pyridin-4-yl]-1,3-benzothiazol-2-yl}acetamide]
15 nM	COCCS(=O)(=O)C(C(=O)NCC(=O)NC1(C)CC1)c1nc2ccc(-c3ccc(F)nc3)cc2s1 (centres unmarked) [Example 381, 2-[6-(6-fluoropyridin-3-yl)-1,3-benzothiazol-2-yl]-2-(2-methoxyethane-sulfonyl)-N-{[(1-methylcyclopropyl)carbamoyl]methyl} acetamide]
37 nM	COCCS(=O)(=O)C(C(=O)NCC(=O)NC1CC1)c1nc2cc(C(F)(F)F)c(-c3ccn(C)c(=O)c3)cc2s1 (centres unmarked) [Example 176, N-[(cyclopropyl-carbamoyl)methyl]-2-(2-methoxyethane-sulfonyl)-2-[6-(1-methyl-2-oxo-1,2-dihydropyridin-4-yl)-5-(trifluoromethyl)-1,3-benzothiazol-2-yl]acetamide]
2 nM	COC(=O)Nc1ccc(-c2cc(Cl)c3nc(C(C(=O)NCC(=O)NC4CC4)S(C)(=O)=O)sc3c2)cc1 (centres unmarked) [Example 125, methyl N-{4-[4-chloro-2-({[(cyclopropyl-carbamoyl)methyl]carbamoyl} (methanesulfonyl)methyl)-1,3-benzothiazol-6-yl]phenyl} carbamate]
25 nM	Cc1cc(-c2cc3nc(C(C(=O)NCC(=O)NCCOC(C)C)S(C)(=O)=O)sc3cc2F)cnn1 (centres unmarked) [Example 362, 2-[6-fluoro-5-(6-methylpyridazin-4-yl)-1,3-benzothiazol-2-yl]-2-methanesulfonyl-N-({[2-(propan-2-yloxy)ethyl]carbamoyl}methyl)acetamide]
14 nM	CC(C)(O)Cn1cc(-c2ccc3nc(C(C(=O)NCC(=O)NC4CC4)S(C)(=O)=O)sc3c2)cn1 (centres unmarked) [Example 109, N-[(cyclopropyl-carbamoyl)methyl]-2-{6-[1-(2-hydroxy-2-methylpropyl)-1H-pyrazol-4-yl]-1,3-benzothiazol-2-yl}-2-methanesulfonyl-acetamide]
145 nM	COCCS(=O)(=O)C(C(=O)NCC(=O)NC1CC1)c1nc2cc(-c3cccc(-c4nnn[nH]4)c3)c(F)cc2s1 (centres unmarked) [Example 133, N-[(cyclopropyl-carbamoyl)methyl]-2-{6-fluoro-5-[3-(1H-1,2,3,4-tetrazol-5-yl)phenyl]-1,3-benzothiazol-2-yl}-2-(2-methoxyethane-sulfonyl) acetamide]
4 nM	CC(C)c1ccc(-c2cc3nc(C(C(=O)NCC(=O)NC4CC4)S(=O)(=O)C(C)C)sc3cc2F)cn1 (centres unmarked) [Example 265, N-[(cyclopropyl-carbamoyl)methyl]-2-{6-fluoro-5-[6-(propan-2-yl)pyridin-3-yl]-1,3-benzothiazol-2-yl}-2-(propane-2-sulfonyl)acetamide]
11 nM	COCCS(=O)(=O)C(C(=O)NCC(=O)NC1CC1)c1nc2cc(F)c(-c3ccc(-c4nn[nH]n4)c(F)c3)cc2s1 (centres unmarked) [Example 420, N-[(cyclopropyl-carbamoyl)methyl]-2-{5-fluoro-6-[3-fluoro-4-(2H-1,2,3,4-tetrazol-5-yl)phenyl]-1,3-benzothiazol-2-yl}-2-(2-methoxyethane-sulfonyl)acetamide]
1 nM	O=C(CNC(=O)C(c1nc2cc(F)c(-c3ccc(NC(=O)OCc4ccccc4)cc3)cc2s1)S(=O)(=O)CC1CCCCC1)NC1CC1 (centres unmarked) [Example 54, benzyl N-(4-{2-[cyclohexyl-methanesulfonyl ({[(cyclopropyl-carbamoyl)methyl]carbamoyl})methyl]-5-fluoro-1,3-benzothiazol-6-yl}phenyl) carbamate]
8 nM	COC(=O)N(C)c1cccc(-c2cc3sc(C(C(=O)NCC(=O)NC4CC4)S(C)(=O)=O)nc3cc2F)c1 (centres unmarked) [Example 547, methyl N-{3-[2-({[(cyclopropyl-carbamoyl)methyl]carbamoyl} (methanesulfonyl)methyl)-5-fluoro-1,3-benzothiazol-6-yl]phenyl}-N-methylcarbamate]
15 nM	Cc1ncc(-c2cc3sc(C(C(=O)NCC(=O)NC4CC4)S(=O)(=O)C(C)C)nc3cc2C)cn1 (centres unmarked) [Example 212, N-[(cyclopropyl-carbamoyl)methyl]-2-[5-methyl-6-(2-methylpyrimidin-5-yl)-1,3-benzothiazol-2-yl]-2-(propane-2-sulfonyl) acetamide]
